The source made the active and inactive calls.
Columns and labels:
[1] = target: Peroxisome proliferator-activated receptor gamma/Nuclear receptor coactivator 1 (Homo sapiens, UniProt P37231); assay type: functional;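 further: agonist potency as compounds enhance coactivator SRC-1 recruitment to PPARgamma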
[2] = target: Peroxisome proliferator-activated receptor gamma/Nuclear receptor coactivator 2 (Homo sapiens, UniProt P37231); assay type: functional;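 further: agonist potency for raising coactivator recruitment to the receptor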
Peroxisome proliferator-activated receptor gamma/Nuclear receptor coactivator 2, sequence (P37231 whole entry): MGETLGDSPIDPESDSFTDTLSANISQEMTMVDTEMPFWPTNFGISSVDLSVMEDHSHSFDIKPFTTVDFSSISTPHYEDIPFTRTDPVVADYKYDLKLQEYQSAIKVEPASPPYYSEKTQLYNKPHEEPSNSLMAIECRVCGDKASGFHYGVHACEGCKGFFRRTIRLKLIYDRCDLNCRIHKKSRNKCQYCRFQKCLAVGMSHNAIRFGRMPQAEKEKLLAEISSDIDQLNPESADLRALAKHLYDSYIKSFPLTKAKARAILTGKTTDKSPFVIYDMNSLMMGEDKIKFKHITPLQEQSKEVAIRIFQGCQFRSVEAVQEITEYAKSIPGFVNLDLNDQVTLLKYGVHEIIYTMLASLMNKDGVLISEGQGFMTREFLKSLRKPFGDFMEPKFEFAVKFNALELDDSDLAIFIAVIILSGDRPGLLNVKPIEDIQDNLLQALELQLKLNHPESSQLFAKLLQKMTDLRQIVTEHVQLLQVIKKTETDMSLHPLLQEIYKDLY
Peroxisome proliferator-activated receptor gamma/Nuclear receptor coactivator 2, sequence (Q15596 whole entry, further chain): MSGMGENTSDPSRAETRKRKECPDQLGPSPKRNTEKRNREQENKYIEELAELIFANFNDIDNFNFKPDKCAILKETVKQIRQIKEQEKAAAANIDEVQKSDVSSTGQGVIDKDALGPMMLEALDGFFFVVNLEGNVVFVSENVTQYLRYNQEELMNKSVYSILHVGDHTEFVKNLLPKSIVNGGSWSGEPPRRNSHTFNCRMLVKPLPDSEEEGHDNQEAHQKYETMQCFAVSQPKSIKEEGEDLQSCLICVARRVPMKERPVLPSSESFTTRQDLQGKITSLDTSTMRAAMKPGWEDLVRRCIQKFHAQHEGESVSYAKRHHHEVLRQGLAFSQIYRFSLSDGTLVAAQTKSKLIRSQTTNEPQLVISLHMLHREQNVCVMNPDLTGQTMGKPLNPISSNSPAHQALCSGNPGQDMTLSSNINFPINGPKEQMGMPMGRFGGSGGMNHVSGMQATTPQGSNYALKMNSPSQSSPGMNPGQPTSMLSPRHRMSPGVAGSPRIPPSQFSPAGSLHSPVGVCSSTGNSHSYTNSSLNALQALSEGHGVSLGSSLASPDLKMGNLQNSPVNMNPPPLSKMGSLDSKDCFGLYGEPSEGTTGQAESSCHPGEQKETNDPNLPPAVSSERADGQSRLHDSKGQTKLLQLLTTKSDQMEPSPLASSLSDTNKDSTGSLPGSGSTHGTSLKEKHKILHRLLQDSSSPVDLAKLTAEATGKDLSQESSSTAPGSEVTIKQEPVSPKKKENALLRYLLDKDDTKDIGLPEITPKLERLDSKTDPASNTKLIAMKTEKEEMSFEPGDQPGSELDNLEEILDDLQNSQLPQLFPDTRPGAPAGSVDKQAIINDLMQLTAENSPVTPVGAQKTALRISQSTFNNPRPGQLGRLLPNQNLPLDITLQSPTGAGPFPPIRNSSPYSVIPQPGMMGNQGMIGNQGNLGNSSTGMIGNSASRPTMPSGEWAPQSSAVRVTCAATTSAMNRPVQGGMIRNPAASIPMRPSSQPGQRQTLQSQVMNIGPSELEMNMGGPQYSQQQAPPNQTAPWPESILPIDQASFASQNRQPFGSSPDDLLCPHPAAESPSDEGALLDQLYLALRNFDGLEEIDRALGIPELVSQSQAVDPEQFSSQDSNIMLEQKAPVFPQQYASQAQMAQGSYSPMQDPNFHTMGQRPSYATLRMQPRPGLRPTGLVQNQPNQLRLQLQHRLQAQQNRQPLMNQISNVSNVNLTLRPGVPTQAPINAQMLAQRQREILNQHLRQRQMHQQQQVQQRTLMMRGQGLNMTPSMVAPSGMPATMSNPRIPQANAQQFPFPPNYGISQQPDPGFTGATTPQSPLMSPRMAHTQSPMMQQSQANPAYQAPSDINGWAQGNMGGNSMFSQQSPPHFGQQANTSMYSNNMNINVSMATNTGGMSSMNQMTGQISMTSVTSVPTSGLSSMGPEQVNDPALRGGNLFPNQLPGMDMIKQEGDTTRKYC

[3] = Luminescence Cell-Based Dose Response HTS to Identify Activators of Luciferase Translation or Activity in H4 […] Cells. [Related pubchem assays: 1829 (Project Summary), 1814 (Primary HTS)]; assay type: functional
[4] = target: Peroxisome proliferator-activated receptor gamma/Nuclear receptor coactivator 3 (Homo sapiens, UniProt P37231); assay type: functional;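 further: agonist potency for raising coactivator recruitment to the receptor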
Peroxisome proliferator-activated receptor gamma/Nuclear receptor coactivator 3, sequence (P37231 whole entry): as the sequence (P37231 whole entry) above
Peroxisome proliferator-activated receptor gamma/Nuclear receptor coactivator 3, sequence (Q9Y6Q9 whole entry, further chain): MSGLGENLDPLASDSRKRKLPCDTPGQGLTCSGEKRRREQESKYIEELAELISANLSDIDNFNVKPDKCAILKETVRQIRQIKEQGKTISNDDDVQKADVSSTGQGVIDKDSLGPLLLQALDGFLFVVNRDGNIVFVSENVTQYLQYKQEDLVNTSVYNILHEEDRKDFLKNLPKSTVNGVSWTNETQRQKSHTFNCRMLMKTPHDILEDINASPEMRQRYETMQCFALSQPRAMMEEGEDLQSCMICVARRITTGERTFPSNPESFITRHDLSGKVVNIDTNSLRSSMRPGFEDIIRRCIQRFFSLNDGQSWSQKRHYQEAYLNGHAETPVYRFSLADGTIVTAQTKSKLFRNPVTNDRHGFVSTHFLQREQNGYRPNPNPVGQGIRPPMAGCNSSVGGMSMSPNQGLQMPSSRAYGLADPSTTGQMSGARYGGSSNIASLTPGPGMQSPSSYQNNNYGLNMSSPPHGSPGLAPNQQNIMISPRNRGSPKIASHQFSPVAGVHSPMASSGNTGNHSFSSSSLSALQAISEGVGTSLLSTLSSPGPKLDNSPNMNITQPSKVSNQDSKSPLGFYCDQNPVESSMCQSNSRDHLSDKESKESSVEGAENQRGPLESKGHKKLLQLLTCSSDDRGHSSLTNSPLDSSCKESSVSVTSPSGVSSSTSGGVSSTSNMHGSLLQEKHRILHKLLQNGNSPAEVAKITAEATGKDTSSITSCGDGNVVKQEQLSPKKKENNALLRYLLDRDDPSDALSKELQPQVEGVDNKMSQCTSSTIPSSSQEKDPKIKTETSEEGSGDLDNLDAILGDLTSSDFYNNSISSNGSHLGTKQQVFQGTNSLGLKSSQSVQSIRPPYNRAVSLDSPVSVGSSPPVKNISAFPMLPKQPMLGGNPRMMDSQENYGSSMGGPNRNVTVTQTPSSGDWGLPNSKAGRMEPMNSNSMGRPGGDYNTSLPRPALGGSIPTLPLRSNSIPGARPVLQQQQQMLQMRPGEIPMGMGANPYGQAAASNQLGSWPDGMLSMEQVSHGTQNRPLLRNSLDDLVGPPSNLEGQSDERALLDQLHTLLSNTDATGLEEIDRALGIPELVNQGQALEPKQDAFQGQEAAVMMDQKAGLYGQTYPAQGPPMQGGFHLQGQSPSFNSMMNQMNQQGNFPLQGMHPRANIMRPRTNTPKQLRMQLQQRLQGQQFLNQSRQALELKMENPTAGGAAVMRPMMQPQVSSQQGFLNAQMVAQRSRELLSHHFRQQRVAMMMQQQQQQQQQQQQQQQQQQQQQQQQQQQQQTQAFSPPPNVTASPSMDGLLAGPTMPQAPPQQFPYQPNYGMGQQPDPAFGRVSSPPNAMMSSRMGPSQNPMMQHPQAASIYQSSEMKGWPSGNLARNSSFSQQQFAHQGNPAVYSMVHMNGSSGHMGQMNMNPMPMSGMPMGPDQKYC

[5] = Luminescence Cell-Based Dose Confirmation HTS to Identify Activators of 5'UTR Stem-Loop Driven Alpha-Synuclein mRNA Translation in H4 Neuroglioblastoma Cells. [Related pubchem assays: 1829 (Project Summary), 1814 (Primary HTS)]; assay type: functional
[6] = test system: H4; experiment: Luminescence Cell-Based Dose Response HTS to Identify Activators of 5'UTR Stem-Loop Driven Prion Protein mRNA Translation in H4 Neuroglioblastoma Cells. [Related pubchem assays: 1829 (Project Summary), 1814 (Primary HTS)]; assay type: functional; conditions: Homo sapiens
[7] = A Cell Based Secondary Assay To Explore Cytotoxicity of Compounds that Sensitize Mycobacterium Tuberculosis to Beta-Lactam Antibiotics.; assay type: functional
[8] = NIH3T3 cell viability loss – ATP luminescence, mouse fibroblasts, counter-screen, dose response (AID 2010); assay type: functional, cell-based;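 further: cells exposed to compound for about 90 hours before reading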
[9] = target: T1, Microphthalmia-associated transcription factor (Homo sapiens, UniProt O75030); experiment: reducers of TRPM1 reporter luminescence, concentration series – cell-based, SK-MEL-5, cherry-picked, set 3, MITF inhibitor project, dose response (AID 493073); assay type: functional;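 further: SK-MEL-5 melanoma cells with luciferase driven by the MITF target TRPM1 promoter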
T1 sequence (O75030 whole entry): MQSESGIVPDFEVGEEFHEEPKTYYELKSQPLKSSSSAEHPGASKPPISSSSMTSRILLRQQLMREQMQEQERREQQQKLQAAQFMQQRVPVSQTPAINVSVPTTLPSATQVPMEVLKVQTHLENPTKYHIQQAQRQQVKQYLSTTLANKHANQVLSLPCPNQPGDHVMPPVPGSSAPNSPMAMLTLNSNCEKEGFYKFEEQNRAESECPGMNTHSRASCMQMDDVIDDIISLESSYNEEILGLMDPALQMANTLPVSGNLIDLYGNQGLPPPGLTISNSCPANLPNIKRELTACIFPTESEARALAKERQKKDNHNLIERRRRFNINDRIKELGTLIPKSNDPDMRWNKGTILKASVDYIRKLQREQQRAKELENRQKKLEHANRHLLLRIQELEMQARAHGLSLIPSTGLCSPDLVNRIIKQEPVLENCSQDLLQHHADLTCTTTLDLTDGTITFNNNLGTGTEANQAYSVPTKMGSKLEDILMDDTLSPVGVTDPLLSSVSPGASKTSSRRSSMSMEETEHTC

[10] = Trypanosoma cruzi growth suppression in host cells – NIH3T3 host cells, beta-gal luminescence, confirmation (AID 2044); assay type: functional, cell-based;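 further: intracellular parasites grown in NIH/3T3 mouse fibroblasts as host cells; luminescent beta-galactosidase reporter signal from transgenic T. cruzi replicating inside host cells; inhibitors lower the luminescence signal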
[11] = cells; assay type: functional, cell-based
[12] = cells; assay type: functional, cell-based; remark: listed apart in the source
[13] = Luminescence-based counterscreen assay for KLF5 inhibitors: dose response cell-based high throughput screening assay to identify cytotoxic compounds using the IEC-6 intestinal epithelial cell line. [Related pubchem assays: 1700 (Primary screen.), 1834 (Confirmation screen.), 1858 (Summary AID.), 1905 (Counterscreen.)]; assay type: functional
[14] = target: T2, Leucine aminopeptidase (Plasmodium falciparum 3D7, UniProt Q8IL11); experiment: P. falciparum M17LAP inhibitors, primary screen, biochemical, fluorogenic H-Leu-NHMec substrate, 1536-well (AID 1619); assay type: functional
T2 sequence (Q8IL11 whole entry): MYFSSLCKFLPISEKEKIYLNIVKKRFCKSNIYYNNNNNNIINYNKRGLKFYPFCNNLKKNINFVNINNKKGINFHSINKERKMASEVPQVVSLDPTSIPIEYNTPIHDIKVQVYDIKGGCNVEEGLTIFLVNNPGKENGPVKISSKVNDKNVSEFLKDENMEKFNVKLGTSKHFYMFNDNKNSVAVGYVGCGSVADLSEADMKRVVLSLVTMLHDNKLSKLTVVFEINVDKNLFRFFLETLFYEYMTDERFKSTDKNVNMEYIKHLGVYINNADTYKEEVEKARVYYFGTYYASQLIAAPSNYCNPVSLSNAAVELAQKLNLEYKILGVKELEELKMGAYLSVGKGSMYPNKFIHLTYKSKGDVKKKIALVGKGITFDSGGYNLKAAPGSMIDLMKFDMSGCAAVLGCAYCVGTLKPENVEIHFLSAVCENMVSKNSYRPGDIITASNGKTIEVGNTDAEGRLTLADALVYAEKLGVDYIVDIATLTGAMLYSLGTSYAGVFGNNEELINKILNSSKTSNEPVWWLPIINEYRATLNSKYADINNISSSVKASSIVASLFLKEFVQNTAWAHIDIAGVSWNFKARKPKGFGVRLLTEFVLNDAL

Compound | EC50 [1] | EC50 [2] | EC50 [4] | CC50 [7] | also measured
COC(=O)CSc1nc2cc3c(cc2cc1C#N)OCO3 | 7.89 µM (active) | 5.17 µM (active) | 7.25 µM (active) |  | EC50 [3]: 0.176 µM (active)
Cc1cc(NC(=O)CN2C(=O)NC3(CCC(C)CC3)C2=O)no1 (configuration not stated) | > 79.4 µM (not active) | > 79.4 µM (not active) | > 79.4 µM (not active) |  | 
CCOC(=O)c1sc2ccccc2c1NC(=O)c1coc2ccccc2c1=O |  |  |  | > 40 µM (active) | EC50 [3]: 16.9 µM (active); EC50 [5]: > 120 µM (not active); EC50 [6]: > 120 µM (not active)
Cc1nc(SCC(=O)Nc2ccc(F)cc2)c2oc3ccccc3c2n1 | > 79.4 µM (not active) | 9.31 µM (active) | > 79.4 µM (not active) |  | 
COc1ccc(CC(=O)NCc2nnc(SCC(=O)Nc3cccc(F)c3)n2C)cc1 | > 79.4 µM (not active) | > 79.4 µM (not active) | > 79.4 µM (not active) |  | 
O=C(NCc1cccs1)c1cc(-c2ccccc2)nc2ccccc12 |  |  |  | > 40 µM (active) | 
COc1ccc(NC(C)C(=O)N/N=C/c2ccc([N+](=O)[O-])s2)cc1 (configuration not stated) |  |  |  | 21.8 µM (active) | EC50 [8]: > 60 µM (inconclusive); AC50 [9]: 15.8 µM (active); EC50 [10]: 0.414 µM (active)
Cn1cccc1-c1cc(C(=O)N/N=C/c2cc(Br)ccc2O)[nH]n1 |  |  |  |  | EC50 [11]: 8.69 µM (active); EC50 [12]: > 350 µM (not active); IC50 [13]: 13.4 µM (not active); AC50 [9]: 5.25 µM (active)
CC1=NNC(=O)C1CC(=O)N/N=C/C(C)=C/c1ccccc1 (configuration not stated) |  |  |  |  | IC50 [14]: 52.8 µM (active)

From ChEMBL document CHEMBL1201862, “PubChem BioAssay data set” (2004)
